Test results published in ChEMBL document CHEMBL4270552, “4-(Phenoxy) and 4-(benzyloxy)benzamides as potent and selective inhibitors of mono-ADP-ribosyltransferase PARP10/ARTD10” (Eur J Med Chem, 2018).

What was measured:
[1] = biological target: T1, Poly [ADP-ribose] polymerase tankyrase-1 (Homo sapiens, UniProt O95271); assay: Inhibition of N-terminal His-tagged human ARTD5 (1030 to 1317 residues) expressed in Escherichia coli Rosetta2 (DE3) using TCEP as substrate after 18 hrs in presence of NAD+
T1 sequence (O95271 whole entry): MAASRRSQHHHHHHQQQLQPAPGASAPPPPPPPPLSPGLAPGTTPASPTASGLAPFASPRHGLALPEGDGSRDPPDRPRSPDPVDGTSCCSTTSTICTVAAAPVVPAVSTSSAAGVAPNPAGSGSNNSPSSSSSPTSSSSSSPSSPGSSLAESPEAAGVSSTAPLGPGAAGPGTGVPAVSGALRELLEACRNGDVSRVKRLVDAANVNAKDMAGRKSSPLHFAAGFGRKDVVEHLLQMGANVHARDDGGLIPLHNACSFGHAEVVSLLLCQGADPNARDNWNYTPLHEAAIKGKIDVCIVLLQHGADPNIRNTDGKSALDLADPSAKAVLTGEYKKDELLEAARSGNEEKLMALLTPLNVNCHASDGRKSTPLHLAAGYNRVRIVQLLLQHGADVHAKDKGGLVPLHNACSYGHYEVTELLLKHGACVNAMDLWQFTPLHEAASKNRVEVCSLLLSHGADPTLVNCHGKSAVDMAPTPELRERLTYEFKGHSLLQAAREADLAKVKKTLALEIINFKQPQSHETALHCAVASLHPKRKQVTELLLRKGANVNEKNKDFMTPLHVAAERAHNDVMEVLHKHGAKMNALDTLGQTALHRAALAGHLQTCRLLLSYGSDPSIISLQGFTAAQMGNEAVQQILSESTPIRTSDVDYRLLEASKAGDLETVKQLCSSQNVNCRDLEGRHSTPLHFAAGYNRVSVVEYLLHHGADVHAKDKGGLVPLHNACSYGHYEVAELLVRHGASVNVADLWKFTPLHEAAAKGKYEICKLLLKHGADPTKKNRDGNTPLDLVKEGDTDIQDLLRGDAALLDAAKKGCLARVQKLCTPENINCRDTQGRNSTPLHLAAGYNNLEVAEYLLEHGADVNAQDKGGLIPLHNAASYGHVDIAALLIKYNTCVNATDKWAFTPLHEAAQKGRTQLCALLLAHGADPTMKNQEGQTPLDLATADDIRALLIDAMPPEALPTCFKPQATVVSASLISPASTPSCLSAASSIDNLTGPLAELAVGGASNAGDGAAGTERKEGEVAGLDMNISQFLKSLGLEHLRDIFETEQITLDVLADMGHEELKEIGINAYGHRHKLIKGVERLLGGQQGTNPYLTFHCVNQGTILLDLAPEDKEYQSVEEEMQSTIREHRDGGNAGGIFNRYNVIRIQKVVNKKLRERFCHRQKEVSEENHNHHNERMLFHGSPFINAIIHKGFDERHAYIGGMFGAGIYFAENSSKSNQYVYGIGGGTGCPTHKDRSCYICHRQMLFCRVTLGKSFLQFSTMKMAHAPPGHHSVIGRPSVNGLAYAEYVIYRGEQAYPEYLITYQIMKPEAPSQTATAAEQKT

[2] = biological target: T2, Protein mono-ADP-ribosyltransferase PARP12 (Homo sapiens, UniProt Q9H0J9); assay: Inhibition of N-terminal His-tagged thioredoxin-fused human ARTD12 (469 to 701 residues) expressed in Escherichia coli Rosetta2 (DE3) after 20 hrs in presence of NAD+
T2 sequence (Q9H0J9 whole entry): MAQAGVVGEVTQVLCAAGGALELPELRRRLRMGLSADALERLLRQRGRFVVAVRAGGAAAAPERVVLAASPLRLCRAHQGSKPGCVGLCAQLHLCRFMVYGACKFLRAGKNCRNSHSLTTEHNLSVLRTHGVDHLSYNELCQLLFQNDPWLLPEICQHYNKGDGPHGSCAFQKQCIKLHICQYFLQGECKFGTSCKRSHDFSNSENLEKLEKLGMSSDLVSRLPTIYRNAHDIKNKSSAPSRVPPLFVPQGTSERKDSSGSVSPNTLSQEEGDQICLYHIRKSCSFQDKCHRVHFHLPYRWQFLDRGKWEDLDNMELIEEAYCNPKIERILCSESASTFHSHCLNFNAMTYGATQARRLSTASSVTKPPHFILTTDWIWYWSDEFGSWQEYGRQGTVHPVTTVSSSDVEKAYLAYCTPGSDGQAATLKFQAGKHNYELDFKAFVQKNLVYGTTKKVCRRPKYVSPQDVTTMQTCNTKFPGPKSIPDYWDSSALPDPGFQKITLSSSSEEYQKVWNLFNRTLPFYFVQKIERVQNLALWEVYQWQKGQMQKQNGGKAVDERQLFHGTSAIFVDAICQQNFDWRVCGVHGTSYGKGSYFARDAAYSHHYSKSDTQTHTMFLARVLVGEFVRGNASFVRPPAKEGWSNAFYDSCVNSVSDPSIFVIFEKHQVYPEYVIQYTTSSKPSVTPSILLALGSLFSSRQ

[3] = biological target: T3, Protein mono-ADP-ribosyltransferase PARP16 (Homo sapiens, UniProt Q8N5Y8); assay: Inhibition of N-terminal His-tagged human ARTD15 (1 to 280 residues) expressed in Escherichia coli Rosetta2 (DE3) after 24 hrs in presence of NAD+
T3 sequence (Q8N5Y8 whole entry): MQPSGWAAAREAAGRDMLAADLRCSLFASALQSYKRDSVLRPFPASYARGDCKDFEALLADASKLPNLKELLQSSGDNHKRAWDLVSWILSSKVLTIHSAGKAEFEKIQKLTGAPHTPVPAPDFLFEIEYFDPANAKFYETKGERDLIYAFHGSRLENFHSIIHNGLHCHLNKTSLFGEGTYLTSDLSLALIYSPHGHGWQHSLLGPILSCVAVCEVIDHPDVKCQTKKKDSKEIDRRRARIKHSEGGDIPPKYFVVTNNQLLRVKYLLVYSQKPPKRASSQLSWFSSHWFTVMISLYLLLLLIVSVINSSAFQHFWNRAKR

[4] = biological target: Protein mono-ADP-ribosyltransferase PARP14 (Homo sapiens, UniProt Q460N5); assay: Inhibition of N-terminal His-tagged thioredoxin-fused human ARTD8 (1535 to 1801 residues) expressed in Escherichia coli Rosetta2 (DE3) after 21 hrs in presence of NAD+
Protein mono-ADP-ribosyltransferase PARP14, sequence (Q460N5 whole entry, the tested form may be a part): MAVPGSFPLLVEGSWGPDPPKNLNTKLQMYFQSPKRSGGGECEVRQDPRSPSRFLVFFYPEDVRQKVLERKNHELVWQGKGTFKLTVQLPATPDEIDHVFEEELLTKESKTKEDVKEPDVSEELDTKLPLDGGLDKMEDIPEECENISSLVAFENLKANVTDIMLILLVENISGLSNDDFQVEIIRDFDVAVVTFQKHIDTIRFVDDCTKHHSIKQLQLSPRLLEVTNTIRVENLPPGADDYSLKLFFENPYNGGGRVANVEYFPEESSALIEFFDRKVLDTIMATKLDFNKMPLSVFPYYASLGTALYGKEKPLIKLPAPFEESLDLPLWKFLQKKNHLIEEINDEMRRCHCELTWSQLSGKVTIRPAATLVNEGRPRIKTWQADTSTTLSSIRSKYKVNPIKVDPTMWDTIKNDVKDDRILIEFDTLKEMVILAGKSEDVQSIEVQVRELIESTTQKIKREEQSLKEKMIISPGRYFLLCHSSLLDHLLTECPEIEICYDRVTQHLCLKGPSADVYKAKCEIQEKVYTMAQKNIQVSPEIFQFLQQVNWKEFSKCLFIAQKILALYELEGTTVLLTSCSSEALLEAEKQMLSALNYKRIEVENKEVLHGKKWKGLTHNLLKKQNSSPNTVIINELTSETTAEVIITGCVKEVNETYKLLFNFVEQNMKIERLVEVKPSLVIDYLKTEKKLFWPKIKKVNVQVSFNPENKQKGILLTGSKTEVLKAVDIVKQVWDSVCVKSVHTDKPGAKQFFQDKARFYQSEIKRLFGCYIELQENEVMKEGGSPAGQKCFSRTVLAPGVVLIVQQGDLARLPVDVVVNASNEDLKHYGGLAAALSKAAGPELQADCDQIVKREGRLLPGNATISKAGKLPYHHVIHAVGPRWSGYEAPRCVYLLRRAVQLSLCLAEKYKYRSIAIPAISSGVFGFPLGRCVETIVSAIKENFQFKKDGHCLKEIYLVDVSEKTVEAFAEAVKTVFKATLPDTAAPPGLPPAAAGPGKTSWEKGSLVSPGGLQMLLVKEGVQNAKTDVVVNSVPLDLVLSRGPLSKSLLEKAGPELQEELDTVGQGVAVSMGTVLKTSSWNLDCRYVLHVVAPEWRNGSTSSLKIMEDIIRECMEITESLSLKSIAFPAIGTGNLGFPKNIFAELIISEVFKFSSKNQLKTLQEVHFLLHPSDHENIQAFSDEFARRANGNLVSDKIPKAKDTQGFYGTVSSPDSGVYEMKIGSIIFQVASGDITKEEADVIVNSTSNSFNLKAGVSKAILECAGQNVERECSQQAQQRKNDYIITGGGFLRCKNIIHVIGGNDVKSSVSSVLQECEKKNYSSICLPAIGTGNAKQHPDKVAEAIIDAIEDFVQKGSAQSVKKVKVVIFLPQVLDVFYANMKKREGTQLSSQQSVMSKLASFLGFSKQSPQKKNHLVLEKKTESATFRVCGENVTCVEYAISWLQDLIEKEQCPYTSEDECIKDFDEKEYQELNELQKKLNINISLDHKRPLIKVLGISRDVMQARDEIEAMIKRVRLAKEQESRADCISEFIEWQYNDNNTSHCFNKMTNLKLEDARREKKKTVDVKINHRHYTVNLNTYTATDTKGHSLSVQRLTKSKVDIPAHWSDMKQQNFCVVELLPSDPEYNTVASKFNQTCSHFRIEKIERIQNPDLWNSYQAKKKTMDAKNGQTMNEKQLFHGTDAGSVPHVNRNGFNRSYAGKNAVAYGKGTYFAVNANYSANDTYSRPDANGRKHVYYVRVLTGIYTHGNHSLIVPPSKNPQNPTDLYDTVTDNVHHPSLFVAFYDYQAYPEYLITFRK

[5] = biological target: Zinc finger CCCH-type antiviral protein 1 (Homo sapiens) (UniProt Q7Z2W4); also: test concentration or dose not given here
Zinc finger CCCH-type antiviral protein 1 (Homo sapiens), sequence (Q7Z2W4 whole entry): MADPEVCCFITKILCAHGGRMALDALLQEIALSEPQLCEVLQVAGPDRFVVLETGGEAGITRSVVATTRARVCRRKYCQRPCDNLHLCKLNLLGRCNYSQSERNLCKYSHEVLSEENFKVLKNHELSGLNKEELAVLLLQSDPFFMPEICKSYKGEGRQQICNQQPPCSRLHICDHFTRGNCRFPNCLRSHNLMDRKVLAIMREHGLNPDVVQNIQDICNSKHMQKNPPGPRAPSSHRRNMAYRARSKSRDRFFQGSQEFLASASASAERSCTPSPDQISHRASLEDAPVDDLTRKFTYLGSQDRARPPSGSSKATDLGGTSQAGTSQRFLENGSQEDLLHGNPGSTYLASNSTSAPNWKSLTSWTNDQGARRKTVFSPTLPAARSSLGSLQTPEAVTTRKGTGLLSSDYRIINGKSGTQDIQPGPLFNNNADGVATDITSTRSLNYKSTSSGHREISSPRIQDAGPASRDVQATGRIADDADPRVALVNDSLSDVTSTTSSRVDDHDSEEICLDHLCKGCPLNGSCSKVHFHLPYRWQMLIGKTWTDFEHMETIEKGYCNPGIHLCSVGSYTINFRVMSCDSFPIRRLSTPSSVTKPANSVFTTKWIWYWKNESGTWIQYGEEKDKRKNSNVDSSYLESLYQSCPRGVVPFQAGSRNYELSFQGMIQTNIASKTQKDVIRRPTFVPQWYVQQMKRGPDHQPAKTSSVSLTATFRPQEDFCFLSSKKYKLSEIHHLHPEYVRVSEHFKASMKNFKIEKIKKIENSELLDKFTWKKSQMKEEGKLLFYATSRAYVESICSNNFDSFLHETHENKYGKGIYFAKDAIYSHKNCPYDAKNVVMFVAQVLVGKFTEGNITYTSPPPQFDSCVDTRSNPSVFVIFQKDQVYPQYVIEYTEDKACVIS

For `NC(=O)c1ccc(Oc2ccc(C(=O)O)cc2)cc1`, the IC50 [1] was > 100 µM, the IC50 [2] was > 10 µM and the IC50 [3] was > 10 µM. For the same molecule, the IC50 [4] was > 10 µM and the ΔTm [5] was 0.72 °C.
In the case of `NC(=O)c1ccc(Oc2ccc(C=O)cc2)cc1`, the IC50 [1] is reported as > 100 µM, the IC50 [2] is reported as > 10 µM and the IC50 [3] is reported as > 10 µM. The IC50 [4] was > 10 µM and the ΔTm [5] was 0.49 °C.
For `NC(=O)c1ccc(OCc2ccccc2F)cc1`, the IC50 [1] was > 100 µM, the IC50 [2] was > 10 µM and the IC50 [3] was > 10 µM. It also gave an IC50 [4] of 10 µM and a ΔTm [5] of 0.37 °C.
In the case of `COc1ccc(C(N)=O)cc1`, the IC50 [1] is reported as > 100 µM, the IC50 [2] is reported as > 10 µM and the IC50 [3] is reported as > 10 µM. The IC50 [4] was > 10 µM and the ΔTm [5] was 0.44 °C.
